Like-named read-outs stand apart in the source and are kept apart here. Marks after values point to notes of the source that are not given here.
Key:
[1] = test system: collagen-induced arthritis Dba1 mouse model; experiment: Established collagen induced arthritis model (clinical score, histopathology, body weight); format: in vivo; settings: for reduction of clinical signs of disease (inhibition of disease): established CIA
Experimental: Established Collagen Induced Arthritis Model: Experiments were carried out at Bolder Biopath, Boulder, Colo. All experiments were carried out in compliance with regulations of the Institutional Animal Care and Use Committee and were conducted in accordance with principles and procedures dictated by the highest standards of humane animal care. […] On study days 25-27, onset of arthritis occurred, and mice were randomized into treatment groups (10/treatment group, 4/group for normal). […] Randomization into each group was done after swelling was obviously established in at least one paw, and attempts were made to assure approximately equal mean scores across the groups at the time of enrollment. […] Treatment continued daily (QD at 24 h intervals) through arthritis day 14.

male NOD mice [2] = experiment: NOD mouse model, salivary gland secretion (pilocarpine-induced salivation assay); format: in vivo; settings: all treatment groups
Experimental: (§1) Non-Obese Diabetic Mouse (NOD) Model of Sjogren's Syndrome. Male Non Obese Diabetic (NOD) mice from the KWS BioTest NOD colony and male BALB/c mice were randomly allocated to experimental groups and allowed to acclimatise for one week prior to the beginning of the study. From six weeks of age, animals were treated according to the administration schedule in Table 5, below. Each group consisted of n=12 animals. The administration volume was 15 ml/kg from 6-12 weeks of age. The administration volume was then decreased to 10 ml/kg from 13-20 weeks of age. The vehicle was distilled water pH 3.0-3.5 for Group 7. The vehicle was 0.5% methylcellulose and 0.25% Tween® 80 for all other groups.
Measurement of salivary gland secretion. Salivary gland secretion was measured every other week from six weeks of age. […] The weight of saliva collected was then measured using digital scales. […]
Salivary Gland Secretion. Salivary gland secretion was measured using the pilocarpine-induced salivation assay. Data are expressed as milligram of saliva per gram bodyweight. Data from this readout are indicative of inflammatory changes in the salivary glands, but significant changes are typically only seen from weeks 18 onwards in NOD mice. […] Data were analysed by two-way ANOVA followed by Dunnett's post-test for multiple comparisons to the vehicle-treated group (FIG. 16).

male NOD mice [3] = experiment: NOD mouse model of Sjogren's syndrome, glycaemia / incidence of diabetes; format: in vivo
Experimental: as §1, with “7. […] Glycaemia. From fourteen weeks of age, animals were monitored weekly for signs of hyperglycaemia. A blood sample” for “7. The vehicle”, “was taken from a superficial vein” for “was 0.5% methylcellulose”, “and the blood glucose level was measured using Free Style Optium glucose test strips (Abbott) and a Boots glucose reader. Glycaemia. Blood glucose was monitored once per week from 14 weeks of age. Animals with glycaemia equal to or greater than 11 mM on two consecutive weekly readings were considered diabetic.” for “and 0.25% Tween® 80 for all other groups.”

Btk = Btk (Homo sapiens, UniProt Q06187); experiment: Clinical single dose study, Btk occupancy in enriched B cells (covalent probe ELISA); format: in vivo
Chain of Btk (Q06187 whole entry): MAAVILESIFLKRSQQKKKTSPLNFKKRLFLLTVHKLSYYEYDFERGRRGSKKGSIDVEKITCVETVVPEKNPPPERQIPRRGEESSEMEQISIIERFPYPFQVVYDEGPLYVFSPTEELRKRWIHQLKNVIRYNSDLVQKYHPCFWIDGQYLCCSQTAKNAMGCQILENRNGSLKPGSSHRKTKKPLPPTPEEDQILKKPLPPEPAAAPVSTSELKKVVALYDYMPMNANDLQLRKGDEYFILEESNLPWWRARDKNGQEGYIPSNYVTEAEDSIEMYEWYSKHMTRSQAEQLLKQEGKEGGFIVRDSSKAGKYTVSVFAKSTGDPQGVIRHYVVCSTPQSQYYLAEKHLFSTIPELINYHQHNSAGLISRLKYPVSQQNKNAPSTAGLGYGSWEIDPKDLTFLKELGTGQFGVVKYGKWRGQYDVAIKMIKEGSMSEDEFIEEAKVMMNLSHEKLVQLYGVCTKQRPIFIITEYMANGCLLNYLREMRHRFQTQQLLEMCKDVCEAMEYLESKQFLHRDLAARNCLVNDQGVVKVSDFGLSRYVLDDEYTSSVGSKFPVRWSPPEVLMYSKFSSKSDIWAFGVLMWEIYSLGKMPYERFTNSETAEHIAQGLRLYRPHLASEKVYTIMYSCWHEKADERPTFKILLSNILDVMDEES
Experimental: Btk Target Site Occupancy ELISA: An ELISA method for the detection of free uninhibited Btk in mouse, rat, dog, monkey, and human lysates was developed at Celgene Avilomics Research and a validation of this method in human B cell lysate was performed by a CLIA Certified laboratory (Cambridge Biomedical Laboratories, Boston, Mass.) The parameters that were assessed included: accuracy, linearity, dilution, precision (intra and inter-assay), stability, reference range, freeze-thaw cycles, reportable range, specificity, sensitivity, and carryover. […] Standards and samples were transferred to a streptavidin-coated 96-well ELISA plate and mixed while shaking for 1 h at room temperature. […] After wash, goat α-mouse-HRP (1:5000 dilution in PBS+0.05% Tween-20+0.5% BSA) was added and incubated for 1 h at room temperature. The ELISA was developed with addition of tetramethyl benzidine (TMB) followed by Stop Solution and read at OD 450 nm.
Clinical Study: A double blind, placebo-controlled, ascending single dose, randomized study in normal healthy human volunteers was conducted at a single clinical research unit in accordance with Declaration of Helsinki principles. Informed consent statements were obtained from all subjects prior to inclusion in the study. Subjects were admitted to the unit 1 day before dosing and discharged 96 h after dosing.
Isolation of Enriched B Lymphocyte Population from Human Healthy Volunteers: 21 mL of human whole blood was collected from each subject at each time point into BD® Vacutainer® CPT Cell Preparation Tubes containing sodium heparin. […] Isolated cells were harvested into a clean 50 mL conical tube that was pooled by subject. […] Cell suspensions were diluted in 1 mL of red blood cell lysis buffer for 3 minutes at room temperature. […] The lysates were stored frozen at ≦−70° C. until Btk target site occupancy analysis by ELISA.

IL-6 = experiment: Inflammatory chemokine and cytokine analysis in CIA mice, IL-6; format: in vivo, mouse
Source text: Inflammatory Chemokine and Cytokine Analysis: At the termination of the CIA study, mice were sacrificed and blood was harvested via cardiac punch using EDTA as an anticoagulant. […] Levels of various mouse cytokines in plasma were quantified using Bioplex® Suspension Array System according to manufacturer's instruction (BioRad, mTNFa (171-G5023M), mIL-6 (171-G5007M), mKC (171-G5018M), mIFNg (171-G5017M), mIL-17 (Z60-00006Z2), mIL-1β (171-G5002M), mMCP-1 (171-G5019M).

Compound: C=CC(=O)Nc1cccc(Nc2nc(Nc3ccc(OCCOC)cc3)ncc2F)c1 [Compound 1 besylate, N-(3-(5-fluoro-2-(4-(2-methoxyethoxyl)phenylamino)pyrimidin-4-ylamino)phenyl)acrylamide besylate]
- reduction of clinical signs of disease (inhibition of disease) ([1]; 3 mg/kg PO QD): 50%
- reduction of clinical signs of disease (inhibition of disease) ([1]; 10 mg/kg PO QD): 85%
- inhibition of histopathologic signs of disease (six joints) ([1]; 30 mg/kg): 96%
- reduction of clinical signs of disease (inhibition of disease) ([1]; 30 mg/kg PO QD): 95%
- body weight loss associated with severity of disease ([1]; all three dose levels (3, 10, 30 mg/kg)): prevented the loss in body weight
- salivary gland secretion between groups (male NOD mice [2]): No significant differences
- Incidence of Diabetes (male NOD mice [3]; 0.16 mg/kg ad libitum, age 18 weeks): 8% (1/12)
- Incidence of Diabetes (male NOD mice [3]; 0.16 mg/kg ad libitum, age 19 weeks): 17% (2/12)
- Incidence of Diabetes (male NOD mice [3]; 0.16 mg/kg ad libitum, age 20 weeks): 17% (2/12)
- Incidence of Diabetes (male NOD mice [3]; 10 mg/kg SID, age 18 weeks): 17% (2/12)
- Incidence of Diabetes (male NOD mice [3]; 10 mg/kg SID, age 19 weeks): 17% (2/12)
- Incidence of Diabetes (male NOD mice [3]; 10 mg/kg SID, age 20 weeks): 18% (2/11)
- Incidence of Diabetes (male NOD mice [3]; 30 mg/kg SID, age 18 weeks): 0
- Incidence of Diabetes (male NOD mice [3]; 30 mg/kg SID, age 19 weeks): 0
- Incidence of Diabetes (male NOD mice [3]; 30 mg/kg SID, age 20 weeks): 0
- Incidence of Diabetes (male NOD mice [3]; 50 mg/kg BID, age 18 weeks): 0
- Incidence of Diabetes (male NOD mice [3]; 50 mg/kg BID, age 19 weeks): 0
- Incidence of Diabetes (male NOD mice [3]; 50 mg/kg BID, age 20 weeks): 0
- Incidence of Diabetes (male NOD mice [3]; 100 mg/kg SID, age 18 weeks): 0
- Incidence of Diabetes (male NOD mice [3]; 100 mg/kg SID, age 19 weeks): 0
- Incidence of Diabetes (male NOD mice [3]; 100 mg/kg SID, age 20 weeks): 0
- receptor occupancy at 2 mg/kg (Btk; 2 mg/kg, 4 hours, read-out: average cohort Btk occupancy (maximal)): > 97%
- time complete or near-complete Btk occupancy was sustained (Btk; 2.0 mg/kg, all 6 subjects): 8 to 24 h
- receptor occupancy at 2 mg/kg (Btk; 2.0 mg/kg, within 4 hours, read-out: Btk occupancy, 5 of 6 subjects): > 98%
- receptor occupancy at 2 mg/kg (Btk; 2.0 mg/kg, within 4 hours, read-out: Btk occupancy, 6th subject): 84%
- average Btk re-synthesis rate (Btk; after single oral 2.0 mg/kg): 3.0 pg Btk/ug protein/hour
- free Btk protein levels recovered, % of pre-dose values (Btk; within 96 hours): ~75%
- IL-6 mean (IL-6; 3 mg/kg): 15.4 pg/mL
- IL-6 mean (IL-6; 10 mg/kg): 9.1* pg/mL
- IL-6 mean (IL-6; 30 mg/lkg): 10.5* pg/mL

— patent publication US20150216865A1, “METHODS OF TREATING A BRUTON'S TYROSINE KINASE DISEASE OR DISORDER” (Celgene Avilomics Research, Inc., priority 2012, published 2015)
